Test results published in patent US8664397B2, “Pyrrolopyridine-2-carboxylic acid amide derivative useful as inhibitor of glycogen phosphorylase” (Prosidion Limited, priority 2004, dated 2014).

Experiments:
[1] = target: T1, Rabbit muscle glycogen phosphorylase a (Oryctolagus cuniculus, UniProt P00489); test: Glycogen phosphorylase assay in vitro (reverse direction, malachite green phosphate detection); type: biochemical; settings: 50 mM Hepes pH 7.2, 7.5 mM glucose, 0.5 mM glucose-1-phosphate, 1 mg/mL glycogen, 30° C. for 30 min
T1 construct: purchased Sigma P1261; host or cells: rabbit muscle
T1 sequence (P00489 2-843 limits assumed): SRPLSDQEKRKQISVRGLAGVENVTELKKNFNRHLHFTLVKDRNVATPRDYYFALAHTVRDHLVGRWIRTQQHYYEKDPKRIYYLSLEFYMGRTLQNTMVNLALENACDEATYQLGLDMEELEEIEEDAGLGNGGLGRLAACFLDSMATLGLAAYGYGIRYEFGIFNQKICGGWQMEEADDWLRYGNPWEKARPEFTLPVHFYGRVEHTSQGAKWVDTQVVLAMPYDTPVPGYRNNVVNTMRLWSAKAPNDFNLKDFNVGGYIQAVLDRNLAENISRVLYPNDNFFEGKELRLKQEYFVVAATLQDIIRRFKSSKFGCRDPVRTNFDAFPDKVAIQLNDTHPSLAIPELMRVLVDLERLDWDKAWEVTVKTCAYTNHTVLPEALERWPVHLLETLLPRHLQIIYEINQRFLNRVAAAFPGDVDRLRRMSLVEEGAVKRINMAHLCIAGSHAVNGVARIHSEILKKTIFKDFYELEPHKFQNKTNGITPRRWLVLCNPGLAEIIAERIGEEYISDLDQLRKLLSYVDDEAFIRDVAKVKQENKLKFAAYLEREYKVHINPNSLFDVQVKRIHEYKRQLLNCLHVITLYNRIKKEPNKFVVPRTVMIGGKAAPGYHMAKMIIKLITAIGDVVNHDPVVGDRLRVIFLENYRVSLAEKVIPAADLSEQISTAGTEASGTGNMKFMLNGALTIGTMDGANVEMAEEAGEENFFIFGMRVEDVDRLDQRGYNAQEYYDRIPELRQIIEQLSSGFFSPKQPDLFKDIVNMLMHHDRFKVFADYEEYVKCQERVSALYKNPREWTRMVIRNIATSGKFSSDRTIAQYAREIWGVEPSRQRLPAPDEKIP
Text: α-D-Glucose-1-phosphate (disodium salt), Glycogen, D-Glucose, Malachite Green Hydrochloride, Ammonium Molybdate tetrahydrate, BSA, HEPES and rabbit muscle phosphorylase a (P1261) were purchased from Sigma. All other reagents were analytical grade.
An assay for glycogen phosphorylase activity in the reverse direction was developed based on the method described by Engers et al., Can. J. Biochem., 1970, 48, 746-754]. Rabbit muscle glycogen phosphorylase a (Sigma) was reconstituted at a stock concentration of 100 μg/mL in 25 mM Tris/HCl. […] in a 96-well plate in a final volume of 100 μL containing 50 mM Hepes pH 7.2, 7.5 mM glucose, 0.5 mM glucose-1-phosphate and 1 mg/mL glycogen. After incubation at 30° C. for 30 min, the inorganic phosphate released from glucose-1-phosphate was measured by the addition of 150 μL of malachite green/molybdate solution prepared as follows: 5 mL of 4.2% ammonium molybdate in 4N HCl, 15 mL of 0.045% malachite green, 50 μL of Tween 20. Following a 30 min incubation at room temperature, the absorbance was measured at 620 nm. For IC50 determination, 10 μL of a serial dilution of compound (100 μM to 0.004 μM) in DMSO was added to each reaction in duplicate with the equivalent concentration of DMSO added to the control uninhibited reaction. Dose response curves were then obtained by plotting % inhibition versus log10 compound concentration. […]

[2] = thermogravimetric method, nitrogen flow, 5° C./min heating rate
Method: Thermogravimetric analysis was performed as follows: A sample of the material (ca. 4-5 mg) was heated in a platinum vessel using slow inert gas (nitrogen) flow with 5° C./min heating rate using Derivatograph C instrument.
Thermal stability data on the product of Example 1 were obtained by the thermogravimetric method described above.

SMILES | IC50 [1] [µM] | Thermal stability (temperature below which the substance appeared to be stable) [2]
O=C(N[C@@H](Cc1ccc(F)cc1)C(=O)N1CCC(O)CC1)c1cc2cc(Cl)ncc2[nH]1 [Formula (I), 5-chloro-1H-pyrrolo[2,3-c]pyridine-2-carboxylic acid [1-(S)-(4-fluorobenzyl)-2-(4-hydroxypiperidin-1-yl)-2-oxoethyl]amide] | < 1000 | –
Cl.O=C(N[C@@H](Cc1ccc(F)cc1)C(=O)N1CCC(O)CC1)c1cc2cc(Cl)ncc2[nH]1 [Example 1] | – | below 190 °C
